Experiments:
hAChE = hAChE (Homo sapiens, UniProt P22303); assay: hAChE inhibition, Ellman's colorimetric method; assay type: biochemical
hBChE = hBChE (Homo sapiens, UniProt P06276); assay: hBChE inhibition, Ellman's colorimetric method; assay type: biochemical; conditions: IC50 ± SEM hBChE, n = 3
hBACE-1 = hBACE-1 (Homo sapiens, UniProt P56817); assay: BACE-1 inhibition, FRET-based fluorometric assay; assay type: biochemical
[1] = DPPH radical scavenging assay; conditions: in methanol
PAS of hAChE = PAS of hAChE (Homo sapiens, UniProt P22303); assay: Propidium iodide displacement assay; assay type: binding; conditions: for inhibition at 10 µM: read-out: (%) PAS-AChE propidium iodide displacement (% inhibition) at 10 μM; for inhibition at 50 µM: read-out: (%) PAS-AChE propidium iodide displacement (% inhibition) at 50 μM
Swiss albino mice = assay: Scopolamine-induced Y-maze test; assay type: in vivo; conditions: scopolamine-induced cognitive dysfunction mice model, p < 0.001
AChE = molecular target: T1, AChE (Mus musculus, UniProt P21836); assay: Ex vivo AChE level in hippocampal brain homogenate; parameters: species or system Swiss albino mice; conditions: in comparison with scopolamine-treated group
T1 sequence (P21836 32-614): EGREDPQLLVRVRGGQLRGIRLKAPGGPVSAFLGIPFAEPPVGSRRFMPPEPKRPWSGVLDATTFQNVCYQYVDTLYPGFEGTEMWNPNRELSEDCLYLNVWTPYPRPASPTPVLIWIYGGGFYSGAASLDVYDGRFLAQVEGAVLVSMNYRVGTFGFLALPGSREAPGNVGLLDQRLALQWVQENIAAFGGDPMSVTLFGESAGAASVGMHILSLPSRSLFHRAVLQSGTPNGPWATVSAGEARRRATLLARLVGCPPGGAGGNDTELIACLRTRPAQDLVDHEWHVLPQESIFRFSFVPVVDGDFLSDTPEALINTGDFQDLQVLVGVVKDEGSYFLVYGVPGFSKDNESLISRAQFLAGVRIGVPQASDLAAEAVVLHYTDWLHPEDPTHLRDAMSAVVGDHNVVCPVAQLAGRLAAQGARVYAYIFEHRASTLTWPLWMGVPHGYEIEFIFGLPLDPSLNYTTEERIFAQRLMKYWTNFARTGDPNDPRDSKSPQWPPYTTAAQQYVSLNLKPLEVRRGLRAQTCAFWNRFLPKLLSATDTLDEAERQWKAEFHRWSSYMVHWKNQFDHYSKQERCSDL

catalase (CAT) = assay: Ex vivo catalase; assay type: in vivo, Swiss albino mice; conditions: hippocampal brain homogenate
in vitro = conditions: pig, PAMPA, pH 7.4

PAS of hAChE, sequence (P22303 32-614): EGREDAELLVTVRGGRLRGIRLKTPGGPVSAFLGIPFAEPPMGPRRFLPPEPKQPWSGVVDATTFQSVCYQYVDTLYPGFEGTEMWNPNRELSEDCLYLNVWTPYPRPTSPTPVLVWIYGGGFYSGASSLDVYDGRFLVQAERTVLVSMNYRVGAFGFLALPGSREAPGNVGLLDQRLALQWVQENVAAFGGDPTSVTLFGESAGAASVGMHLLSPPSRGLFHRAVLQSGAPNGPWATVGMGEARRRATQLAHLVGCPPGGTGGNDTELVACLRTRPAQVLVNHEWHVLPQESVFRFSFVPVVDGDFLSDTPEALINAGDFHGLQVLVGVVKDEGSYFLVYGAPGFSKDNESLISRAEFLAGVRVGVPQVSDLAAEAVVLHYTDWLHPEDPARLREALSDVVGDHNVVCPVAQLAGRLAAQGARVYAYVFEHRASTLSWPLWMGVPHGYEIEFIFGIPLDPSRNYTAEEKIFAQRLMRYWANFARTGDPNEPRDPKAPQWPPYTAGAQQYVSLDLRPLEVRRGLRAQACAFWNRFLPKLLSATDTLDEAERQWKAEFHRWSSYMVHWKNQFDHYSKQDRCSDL
hBACE-1, sequence (P56817 46-501): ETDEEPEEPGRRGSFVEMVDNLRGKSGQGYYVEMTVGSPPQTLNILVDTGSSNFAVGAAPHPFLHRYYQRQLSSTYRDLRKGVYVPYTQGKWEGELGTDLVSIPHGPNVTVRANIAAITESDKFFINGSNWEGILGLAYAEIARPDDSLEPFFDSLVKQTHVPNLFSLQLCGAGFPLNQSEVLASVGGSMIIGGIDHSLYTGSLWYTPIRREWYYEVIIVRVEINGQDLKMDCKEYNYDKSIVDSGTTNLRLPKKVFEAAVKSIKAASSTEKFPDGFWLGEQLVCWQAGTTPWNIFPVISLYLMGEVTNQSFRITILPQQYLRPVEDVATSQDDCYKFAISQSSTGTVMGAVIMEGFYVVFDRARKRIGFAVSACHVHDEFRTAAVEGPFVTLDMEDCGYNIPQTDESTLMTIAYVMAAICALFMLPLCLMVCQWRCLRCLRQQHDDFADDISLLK
hBChE, sequence (P06276 29-602): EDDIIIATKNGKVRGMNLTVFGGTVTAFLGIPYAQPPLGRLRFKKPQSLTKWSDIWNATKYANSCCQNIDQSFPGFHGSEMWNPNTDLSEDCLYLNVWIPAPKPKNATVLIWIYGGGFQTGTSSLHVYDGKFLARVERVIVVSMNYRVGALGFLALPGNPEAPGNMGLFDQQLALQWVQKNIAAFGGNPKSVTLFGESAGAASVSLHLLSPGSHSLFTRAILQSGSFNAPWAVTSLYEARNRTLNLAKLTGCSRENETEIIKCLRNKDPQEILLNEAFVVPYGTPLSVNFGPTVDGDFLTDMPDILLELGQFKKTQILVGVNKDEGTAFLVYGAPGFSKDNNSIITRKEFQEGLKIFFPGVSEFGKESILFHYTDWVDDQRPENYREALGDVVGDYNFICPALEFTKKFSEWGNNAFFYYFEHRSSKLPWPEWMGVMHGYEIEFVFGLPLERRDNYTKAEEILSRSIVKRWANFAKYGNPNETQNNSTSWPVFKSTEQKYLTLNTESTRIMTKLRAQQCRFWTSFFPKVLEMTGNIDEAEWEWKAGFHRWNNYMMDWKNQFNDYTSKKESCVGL
hAChE, sequence (P22303 32-617 isoform P22303-2 limits assumed): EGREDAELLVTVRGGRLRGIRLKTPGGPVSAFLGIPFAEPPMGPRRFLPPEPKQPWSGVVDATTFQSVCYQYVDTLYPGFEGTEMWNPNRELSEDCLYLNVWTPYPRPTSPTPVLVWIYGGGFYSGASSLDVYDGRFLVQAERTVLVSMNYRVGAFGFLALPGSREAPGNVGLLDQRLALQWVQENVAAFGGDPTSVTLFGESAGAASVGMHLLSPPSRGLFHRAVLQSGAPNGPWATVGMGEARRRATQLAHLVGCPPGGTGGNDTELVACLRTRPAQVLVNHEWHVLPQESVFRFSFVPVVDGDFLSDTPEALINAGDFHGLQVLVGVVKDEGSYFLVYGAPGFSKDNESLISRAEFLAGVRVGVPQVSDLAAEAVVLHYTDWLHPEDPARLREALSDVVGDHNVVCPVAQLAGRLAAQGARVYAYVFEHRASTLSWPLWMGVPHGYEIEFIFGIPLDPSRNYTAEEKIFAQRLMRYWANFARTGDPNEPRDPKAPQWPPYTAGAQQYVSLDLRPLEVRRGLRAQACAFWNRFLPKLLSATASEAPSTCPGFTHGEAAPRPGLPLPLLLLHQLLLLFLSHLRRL

`c1ccc(-c2nnc(CN3CCN(c4ccccc4)CC3)o2)cc1` [5AA, 2-Phenyl-5-((4-phenylpiperazin-1-yl)methyl)-1,3,4-oxadiazole] showed an IC50 (hAChE) of 1830 ± 76 nM and an IC50 (hBChE) greater than 10000 nM.
In the case of `c1ccc(CN2CCN(Cc3nnc(-c4ccccc4)o3)CC2)cc1` [5AB, 2-((4-Benzylpiperazin-1-yl)methyl)-5-phenyl-1,3,4-oxadiazole], the IC50 (hAChE) is reported as 1790 ± 32 nM, the IC50 (hBChE) is reported as greater than 10000 nM and the IC50 (hBACE-1) is reported as greater than 10000 nM. The “% RSA of DPPH ± SEM at 25 μM” value [1] was 42.24%, the inhibition at 10 µM (PAS of hAChE) was 18.4 ± 1.07% and the inhibition at 50 µM (PAS of hAChE) was 29.5 ± 1.33%.
`c1ccc(-c2nnc(CN3CCN(C(c4ccccc4)c4ccccc4)CC3)o2)cc1` [5AC, 2-((4-Benzhydrylpiperazin-1-yl)methyl)-5-phenyl-1,3,4-oxadiazole] gave an IC50 (hAChE) of 3150 ± 20.2 nM and an IC50 (hBACE-1) of 5620 ± 73 nM.
Work on `c1ccc(-c2nnc(CN3CCN(c4ccccn4)CC3)o2)cc1` [5AD, 2-Phenyl-5-((4-(pyridin-2-yl)piperazin-1-yl)methyl)-1,3,4-oxadiazole] yielded an IC50 (hAChE) of 103 ± 17.2 nM, an IC50 (hBChE) of no less than 10000 nM and an IC50 (hBACE-1) of 1340 ± 78 nM. The “% RSA of DPPH ± SEM at 25 μM” value [1] was 44.35%, the learning and memory (Swiss albino mice) was “significant improvement in learning and memory” and the “AChE level in hippocampal brain homogenate” value (AChE) was “decrease in AChE”. For the same compound, the “catalase (CAT) level in brain homogenate” value (catalase (CAT)) was “increase in catalase” and the Papp (in vitro) was 6.5 ± 0.072 ×10⁻⁶ cm/s.
`O=[N+]([O-])c1ccc(N2CCN(Cc3nnc(-c4ccccc4)o3)CC2)cc1` [5AF, 2-((4-(4-Nitrophenyl)piperazin-1-yl)methyl)-5-phenyl-1,3,4-oxadiazole] showed an IC50 (hAChE) of 1870 ± 44.1 nM, an IC50 (hBChE) greater than 10000 nM and an IC50 (hBACE-1) of 6242 ± 30 nM.
Work on `Cc1ccc(N2CCN(Cc3nnc(-c4ccccc4)o3)CC2)cc1` [5AG, 2-Phenyl-5-((4-(p-tolyl)piperazin-1-yl)methyl)-1,3,4-oxadiazole] yielded an IC50 (hAChE) of 2590 ± 16.9 nM, an IC50 (hBChE) greater than 10000 nM and an IC50 (hBACE-1) of 3810 ± 39 nM. The “% RSA of DPPH ± SEM at 25 μM” value [1] was 36.30 ± 2.5%.
`COc1ccc(N2CCN(Cc3nnc(-c4ccccc4)o3)CC2)cc1` [5AH, 2-((4-(4-Methoxyphenyl)piperazin-1-yl)methyl)-5-phenyl-1,3,4-oxadiazole] gave an IC50 (hAChE) of 1480 ± 71.9 nM, an IC50 (hBChE) greater than 10000 nM and an IC50 (hBACE-1) of 1685 ± 12 nM. The “% RSA of DPPH ± SEM at 25 μM” value [1] was 38.78 ± 2.9%, the inhibition at 10 µM (PAS of hAChE) was 19.2 ± 1.81% and the inhibition at 50 µM (PAS of hAChE) was 26.7 ± 1.34%. For the same compound, the Papp (in vitro) was 5.8 ± 0.175 ×10⁻⁶ cm/s.
With `Cc1ccc(CN2CCN(Cc3nnc(-c4ccccc4)o3)CC2)cc1` [5AI, 2-((4-(4-Methylbenzyl)piperazin-1-yl)methyl)-5-phenyl-1,3,4-oxadiazole] the IC50 (hAChE) was 1797 ± 8.1 nM, the IC50 (hBACE-1) was 392 ± 21 nM and the “% RSA of DPPH ± SEM at 25 μM” value [1] was 36.24 ± 2.6%. The inhibition at 10 µM (PAS of hAChE) was 17.7 ± 1.26%.
In the case of `O=C1O[C@H]([C@@H](O)CO)C(O)=C1O` [Ascorbic acid, reference compound], the “% RSA of DPPH ± SEM at 25 μM” value [1] is reported as 59.65 ± 2.3%.

From publication PMC11044217 (ACS Omega, 2024)
